In US5679674A (priority 1992, dated 1997):
Where a name gives a salt, the structure may show the parent alone. Read-outs that look alike come from different tables or passages of the source.

Columns and labels:
[1] = system: p-Phenylquinone-induced agony (writhing response) in mice; test: p-Phenylquinone-induced agony test in mice (oral administration); assay type: in vivo, Male ddy mice; conditions: Mus musculus, 0.25 h, read-out: Analgesic effect (Oral Administration) (ED50, mg/kg) Phenylquinone-induced agony test
Experimental: p-Phenylquinone-induced agony test in mice (oral administration)
According to the method of Siegmund et al. [Proc. Soc. Exptl. Biol. Med., 95, 729 (1957)], the title test was conducted. Male ddy mice (Japan SLC) each weighing about 20 g were fasted for about 16 hours from the day before the test and divided into groups each including from 5 to 10 mice.
A compound to be tested was dissolved in 0.5% tragacanth and administered orally. After 15 minutes, each 0.1 ml/mouse of 0.03% p-phenylquinone solution was injected intraperitoneally. During 5 to 10 minutes after injection, the number of agony reactions (writhing response) observed in each mouse was counted. Those mice showing 1/2 or less of the mean value of the numbers of agony reactions observed in the control mice injected with only physiological saline were regarded as analgesic-effective animals.

[2] = system: p-Phenylquinone-induced agony (writhing response) in mice; test: animal or person; assay type: in vivo, Male ddy mice; conditions: Mus musculus, sc, 0.25 h, read-out: Analgesic effect (ED50, μg/kg sc) Phenylquinone-induced agony test
[3] = molecular target: T1, μ-receptor (Cavia porcellus, UniProt A0ACM8Q262); parameters: species or system guinea pig; conditions: read-out: Binding to the receptors (IC50, nM) μ
T1 construct: tritiated DAGO (DAMGO) displacement

[4] = molecular target: T2, k-receptor (Cavia porcellus, UniProt P41144); test: biochemical; assay type: binding, guinea pig
T2 construct: The whole brain of male Hertley guinea pigs (Japan SLC); from tissue; host or cells: crude membranes of guinea pig whole brain without cerebellum (Hartley, printed 'Hertley', males)

[5] = read-out: Binding to the receptors (IC50, nM) k

T2 sequence (P41144 whole entry): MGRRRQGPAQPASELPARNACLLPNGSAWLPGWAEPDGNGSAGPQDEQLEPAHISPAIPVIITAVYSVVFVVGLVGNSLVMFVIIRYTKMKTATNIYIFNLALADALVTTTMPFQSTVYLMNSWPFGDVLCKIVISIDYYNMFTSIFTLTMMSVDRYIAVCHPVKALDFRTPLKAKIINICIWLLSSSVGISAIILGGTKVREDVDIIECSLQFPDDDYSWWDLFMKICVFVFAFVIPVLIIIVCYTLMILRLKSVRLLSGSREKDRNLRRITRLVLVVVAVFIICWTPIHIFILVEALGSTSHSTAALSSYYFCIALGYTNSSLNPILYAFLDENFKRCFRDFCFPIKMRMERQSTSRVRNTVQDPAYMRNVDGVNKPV
T1 sequence (A0ACM8Q262 1-400): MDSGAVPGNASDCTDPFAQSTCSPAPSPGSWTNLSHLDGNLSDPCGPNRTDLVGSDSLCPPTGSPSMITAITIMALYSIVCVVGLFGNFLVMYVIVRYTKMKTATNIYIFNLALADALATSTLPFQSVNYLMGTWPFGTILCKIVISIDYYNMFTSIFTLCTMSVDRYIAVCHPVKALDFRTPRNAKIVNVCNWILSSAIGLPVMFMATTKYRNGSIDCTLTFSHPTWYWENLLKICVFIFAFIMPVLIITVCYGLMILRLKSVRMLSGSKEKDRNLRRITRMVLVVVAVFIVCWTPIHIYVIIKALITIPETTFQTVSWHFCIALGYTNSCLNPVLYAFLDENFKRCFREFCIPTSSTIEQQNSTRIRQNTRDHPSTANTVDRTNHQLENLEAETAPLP

Structure (SMILES)	ED50 [1] [mg/kg]	ED50 [2] [µg/kg]	IC50 [3] [nM]	IC50 [4, 5] [nM]	IC50 [4] [nM]
O=C([C@H]1CCc2cc(Cl)c(Cl)cc21)N1CCSC[C@H]1CN1CCCC1 (relative stereo) [Racemate Corresponding to Compound of Example 1]	0.18				
O=C1C[C@H](C(=O)N2CCSC[C@H]2CN2CCCC2)c2cc(Cl)c(Cl)cc21 (relative stereo) [Racemate Corresponding to Compound of Example 2]	0.79				
O=C1CC[C@H](C(=O)N2CCSC[C@H]2CN2CCCCC2)c2cc(Cl)c(Cl)cc21 (relative stereo) [Racemate Corresponding to Compound of Example 3]	1.22				
O=C([C@@H]1CCc2cc(Cl)c(Cl)cc21)N1CCSC[C@H]1CN1CCCC1 [Corresponding (3R, 1R)]		23900	32000	3500	
O=C([C@@H]1CCc2cc(Cl)c(Cl)cc21)N1CCSC[C@@H]1CN1CCCC1 [Corresponding (3S, 1R)]		10900	12000		21000
O=C([C@H]1CCc2cc(Cl)c(Cl)cc21)N1CCSC[C@@H]1CN1CCCC1 [Corresponding (3S, 1S)]		7800	15000		920
O=C([C@H]1CCc2cc(Cl)c(Cl)cc21)N1CCSC[C@H]1CN1CCCC1 [Example 1, (3R)-3-(1-Pyrrolidinylmethyl)-4-[(1S)-(5,6-dichloro-1-indanecarbonyl]thiomorpholine hydrochloride]	0.011	1.3	300	0.44	
O=C1C[C@H](C(=O)N2CCSC[C@H]2CN2CCCC2)c2cc(Cl)c(Cl)cc21 [Example 2, (3R)-3-(1-Pyrrolidinylmethyl)-4-[(1S)-3-oxo-5,6-dichloro-1-indanecarbonyl]thiomorpholine hydrochloride]	0.031	0.6	330		0.46
O=C1CC[C@H](C(=O)N2CCSC[C@H]2CN2CCCCC2)c2cc(Cl)c(Cl)cc21 [Example 3, (3R)-3-(1-Piperidinylmethyl)-4-[(1S)-6,7-dichloro-4(3H)-oxo-1,2-dihydro-1-naphthoyl]thiomorpholine hydrochloride]	0.29	13	1800	1.7	
